# Results: PMC12458691 (Inorganic Chemistry, 2025)
# Read-outs that look alike come from different tables or passages of the source. Marks after values point to notes of the source that are not given here.
# Key:
# [1] = McCord–Fridovich nitroblue tetrazolium (NBT) SOD activity assay; type: biochemical; settings: for SOD activity of the Fe2+ complexes (in words): NBT method, under the conditions of this study; for k cat (SOD catalytic constant): metal complexes, calculated from IC50 as kNBT[NBT]/IC50, pH 7.4, [NBT] = 59 μM; for increase in the SOD catalytic constant of the Cu2+ complex on functionalization of the pyridine: relative to Cu2+ complexes of HPyNH3 or HPyNMe3
# Excerpt: First, the SOD activity of the complexes was studied by means of the nitroblue tetrazolium (NBT) method, also known as McCord–Fridovich method. This is a widely used, indirect method based on the side production of superoxide anions by the xanthine oxidase enzyme and their capture by the NBT dye to give formazan. − A compound displaying SOD activity decreases the flow of superoxide radical anions and, thereby, the production of formazan (see the representation of the fitting of the data in Figures and S13–S16). Thus, by following the absorption band of formazan at 560 nm, the SOD activity of the studied mimetic can be quantified. Blank experiments were recorded with the ligands alone without observing any effect. The values of IC50, defined as the amount of the compound necessary for achieving 50% inhibition of NBT reduction to formazan by the superoxide anion, together with the catalytic constants (k cat), were obtained as indicated in the Experimental Section and are summarized in Table .
# The SOD-like activity was determined by using the nitroblue tetrazolium (NBT) method, which despite its limitations is frequently used to estimate the activity of SOD mimetics. − The assays were carried out in a pH = 7.4 50 mM HEPES buffer at 298 K. The xanthine (2.2 × 10^–4 M) and xanthine oxidase (ca. 3 UN) system was used to generate a reproducible and constant flux of superoxide anions. […] Data in the absence of the complex were used as a reference. […] The percentage of inhibition of the NBT reduction to formazan was used as a measure of the SOD activity of the compounds. The concentration of the complex required to yield 50% inhibition of NBT reduction (IC50) was determined from a plot of percentage inhibition versus complex concentration. The IC50 data were calculated from the mean values of (at least) three independent measurements. The catalytic constant was calculated from the IC50 using the equation k cat = k NBT[NBT]/IC50 where k NBT = (5.94 ± 0.5) × 10^4 M^–1 s^–1. −
# [2] = Stability constants and speciation of Fe2+ complexes by potentiometric measurements; type: physicochemical; settings: for log K, Fe+L⇄[FeL] (stability constant) / log K, [FeL]+H2O⇄[FeL(OH)]+H: 0.15 M NaClO4, 298.1 K; for pFe: calculated for theoretical solutions
# Procedure: (§1) Caution! Perchlorate salts are explosive and should be handled with care; such compounds should never be heated as solids. The potentiometric titrations were carried out at 298.1 ± 0.1 K using 0.15 M NaClO4 as the supporting electrolyte. The experimental procedure (buret, potentiometer, cell, stirrer, microcomputer, etc.) has been fully described elsewhere. The acquisition of raw potentiometric data was performed with the computer program PASAT. The reference electrode was a Ag/AgCl electrode in a saturated KCl solution. The glass electrode was calibrated as a hydrogen-ion concentration probe by titration of previously standardized amounts of HCl with CO2-free NaOH solutions, and the equivalent point was determined by Gran’s method, , which gives the standard potential, E̊, and the ionic product of water (pK w = 13.73(1)). The computer program […] was used to calculate the protonation and stability constants. The HYSS program was used to obtain the distribution diagrams. The pH range investigated by using this technique was 2.5–11.0, in accordance with the linear response range of glass electrodes. The solutions were extensively deaerated with an argon flow before the potentiometric runs. A moderate argon flow was maintained throughout the course of the titrations. The different titration curves for each system (at least two) were treated either as a single set or as separate curves without significant variations in the values of the stability constants. Finally, the sets of data were merged and treated simultaneously to give the final stability constants.
# [3] = Stability constants and speciation of Cu2+ complexes by potentiometric measurements; type: physicochemical; settings: for log K, Cu+L⇄[CuL] (stability constant) / log K, [CuL]+H2O⇄[CuL(OH)]+H: 0.15 M NaClO4, 298.1 K; for pCu: calculated for theoretical solutions
# Procedure: as §1
# [4] = Protonation constants by potentiometric and UV–vis titrations; type: physicochemical; settings: for three protonation constants, span from first to third: potentiometric titrations (third constant of COOMePyNMe3 by UV)
# Procedure: as §1
# The solvents used were of spectroscopic or equivalent grade. Water was twice distilled and passed through a Millipore apparatus. The pH values were measured with a Metrohm 713 pH meter, and adjustments of the hydrogen-ion concentration of the solutions were made with diluted HCl and NaOH solutions. UV–vis absorption spectra were recorded between pH 2 and 11 with an Agilent 8453 spectrometer. The resulting data from the titrations were used to calculate the third protonation constant of ^ COOMe PyNMe 3 . For this, the HypSpec program was employed, considering all of the absorbance intensities in the range of 250 and 350 nm.
# [5] = parameters: method as in number not given; settings: Mn2+ complexes of the ligands, recently reported; ref number not given; cited from earlier work
# [6] = Catalase activity by pressure monitoring of evolved O2; type: biochemical; settings: 25°C, pH 7.5
# Procedure: The quantification of the evolved oxygen is frequently used to evaluate the catalase activity. − In this work, the amount of gas evolved during the reaction of the Fe^2+–^ COOH PyNMe 3 complex with hydrogen peroxide was monitored by measuring the pressure changes over time using a previously calibrated Man on the Moon X104 gas evolution kit. For that purpose, 2.5 mL of an aqueous solution of the complex at concentrations of (0.5–2.7) × 10^–4 M buffered at pH 7.5 with TRIS (50 mM) was prepared inside a glovebox, placed in a closed reaction vessel, and purged with nitrogen. Once the pressure readings were stabilized, 0.2–1.2 mL of a 0.12 M aqueous solution of H2O2 (also prepared in TRIS 50 mM at pH 7.4) was added, and the pressure was then measured as a function of time. A blank experiment was conducted with a complex-free solution of a 50 mM TRIS solution with hydrogen peroxide at pH 7.4, where no O2 evolution was detected. The same result was obtained for blank experiments, including also the ligand but not the metal ion or the free metal ion (i.e., Fe^2+, Fe^3+, or Cu^2+) in the absence of the ligand (see Entries 8–12 in Table ). […] Nevertheless, the possible formation of small amounts of CO2, which would introduce a small error in the estimation of evolved O2, cannot be completely ruled out.
# [7] = parameters: method as in earlier work; settings: Table S3, 0.15 M NaClO4, 298.1 K; ref 1 of the SI; cited from earlier work
# [8] = parameters: method as in footnotes c–f, numbers not given; settings: Cu2+ complexes/salt/enzyme, literature data for comparison; ref footnotes c–f, numbers not given; cited from earlier work
# [9] = cited from earlier work
# [10] = cited from earlier work; remark: listed apart in the source
# [11] = 0.15 M NaClO4, 298.1 K, potentiometry
# [12] = entry 8: no ligand, [Fe2+]0 2.14 × 10^–4 M as Fe(SO4), [H2O2]0 3.4 × 10^–2 M
# [13] = entry 12: ligand alone 2.14 × 10^–4, no metal ion, [H2O2]0 3.4 × 10^–2 M
# [14] = Table S2, 0.15 M NaClO4, 298.1 K, potentiometry, ref 1 of the SI
# [15] = Table S3, 0.15 M NaClO4, 298.1 K, ref 1 of the SI
# [16] = 0.15 M NaClO4, 298.1 K, ref footnote c, number not printed
# [17] = entry 10: no ligand, [Cu2+]0 2.7 × 10^–4 M as Cu(ClO4)2, [H2O2]0 4.3 × 10^–2 M
# [18] = entry 9: no ligand, 2.14 × 10^–4 M FeCl3, [H2O2]0 3.4 × 10^–2 M
compound,measurement,setting,value
COC(=O)c1cc2nc(c1)CN(C)CCN(C)CCN(C)C2 [^ COOMe PyNMe 3],SOD activity of the Fe2+ complexes (in words),[1],negligible SOD activity
same,k cat (SOD catalytic constant),[1],40.3 10^6 M^–1 s^–1
same,increase in the SOD catalytic constant of the Cu2+ complex on functionalization of the pyridine,[1],34 fold
same,"log K, Fe+L⇄[FeL] (stability constant)",[2],9.46(2)
same,"log K, [FeL]+H2O⇄[FeL(OH)]+H",[2],–8.18(5)
same,pFe,"[2]; pH 7.4, [L]=[M]=1 µM",6.27
same,pFe,"[2]; pH 7.4, [L]=[M]=10 µM",5.66
same,"log K, Cu+L⇄[CuL] (stability constant)",[3],16.84(3)
same,"log K, [CuL]+H2O⇄[CuL(OH)]+H",[3],–8.26(4)
same,pCu,"[3]; pH 7.4, [L]=[M]=1 µM",9.79
same,pCu,"[3]; pH 7.4, [L]=[M]=10 µM",9.29
same,"log K, H2L^(2+x)++H^+⇄H3L^(3+x)+ (stepwise protonation constant)","[4]; 0.15 M NaClO4, 298.1 K, obtained by UV–vis spectroscopic titration",2.48(1) ^f
same,"log K, HL^(1+x)++H^+⇄H2L^(2+x)+ (stepwise protonation constant)",[4]; [11],7.03(1)
same,"log K, L^x+H^+⇄HL^(1+x)+ (stepwise protonation constant)",[4]; [11],10.57(2)
same,"three protonation constants, span from first to third",[4],10.57 to 2.48 logarithmic units
Oc1cc2nc(c1)CNCCNCCNC2 [^ OH PyNH 3],TON of catalase activity of the Mn2+ complexes,[5],25–37
O=S(=O)([O-])[O-].[Fe+2] [Fe(SO4)],TON (moles of H2O2 decomposed by one mol of metal ions),[6]; [12],0
same,nO2(g),[6]; [12],0 mol
CN1CCN(C)Cc2cc(C(=O)O)cc(n2)CN(C)CC1 [^ COOH PyNMe 3],SOD activity of the Fe2+ complexes (in words),[1],negligible SOD activity
same,k cat (SOD catalytic constant),[1],12.3 10^6 M^–1 s^–1
same,increase in the SOD catalytic constant of the Cu2+ complex on functionalization of the pyridine,[1],6- to 10 fold
same,"log K, Fe+L⇄[FeL] (stability constant)",[2],10.02(2)
same,"log K, [FeL]+H2O⇄[FeL(OH)]+H",[2],–9.44(4)
same,pFe,"[2]; pH 7.4, [L]=[M]=1 µM",6.22
same,pFe,"[2]; pH 7.4, [L]=[M]=10 µM",5.58
same,free Fe2+,"[2]; pH 7.5, [COOHPyNMe3]=[Fe2+]=50 µM, 0.15 M NaClO4 (Figure S19)",10.9%
same,free Fe2+,"[2]; pH 7.5, [COOHPyNMe3]=[Fe2+]=270 µM, 0.15 M NaClO4 (Figure S18)",4.8%
same,"log K, Cu+L⇄[CuL] (stability constant)",[3],16.35(4)
same,"log K, [CuL]+H2O⇄[CuL(OH)]+H",[3],–9.24(7)
same,"log K, Cu+L⇄[CuL] (stability constant)",[3]; listed as COOHPyNMe3,16.35
same,pCu,"[3]; pH 7.4, [L]=[M]=1 µM",9.18
same,pCu,"[3]; pH 7.4, [L]=[M]=10 µM",8.68
same,"log β (∑log K, protonation)","[4]; 0.15 M NaClO4, 298.1 K",21.53
same,"log K, H2L^(2+x)++H^+⇄H3L^(3+x)+ (stepwise protonation constant)",[4]; [11],2.90(4)
same,"log K, HL^(1+x)++H^+⇄H2L^(2+x)+ (stepwise protonation constant)",[4]; [11],7.73(3)
same,"log K, L^x+H^+⇄HL^(1+x)+ (stepwise protonation constant)",[4]; [11],10.90(2)
same,"three protonation constants, span from first to third",[4],10.90 to 2.90 logarithmic units
same,TON (moles of H2O2 decomposed by one mol of metal ions),[6]; [13],0
same,nO2(g),[6]; [13],0 mol
CN1CCN(C)Cc2cccc(n2)CN(C)CC1 [^ H PyNMe 3],"log K, Fe2+ + L ⇄ [FeL]2+ (stability constant)",[7],9.72(2)
same,"log K, [FeL(OH)]+ + H2O ⇄ [FeL(OH)2] + H+",[7],-10.58(5)
same,"log K, [FeL]2+ + H2O ⇄ [FeL(OH)] + H+",[7],-9.08(4)
same,k cat (SOD catalytic constant),[8],1.2 10^6 M^–1 s^–1
same,"log K, H + HL ⇄ H2L (stepwise protonation constant)",[9]; [14],7.37(1)
same,"log K, H + L ⇄ HL (stepwise protonation constant)",[9]; [14],10.88(1)
same,"log β (∑log K, protonation)","[9]; Table S2, 0.15 M NaClO4, 298.1 K, ref 1 of the SI",18.25
same,"log K, [CuL(OH)]+ + H2O ⇄ [CuL(OH)2] + H+",[10]; [15],-11.31(8)
same,"log K, [CuL]2+ + H2O ⇄ [CuL(OH)]+ + H+",[10]; [15],-8.53(4)
O=C(O)c1cc2nc(c1)CNCCNCCNC2 [^ COOH PyNH 3],SOD activity of the Fe2+ complexes (in words),[1],negligible SOD activity
same,increase in the SOD catalytic constant of the Cu2+ complex on functionalization of the pyridine,[1],6- to 10 fold
same,pCu,"[3]; pH 7.4, [L]=[M]=1 µM",9.80
same,pCu,"[3]; pH 7.4, [L]=[M]=10 µM",9.30
same,k cat (SOD catalytic constant),[8],9.7 10^6 M^–1 s^–1
same,"log K, H2L^(2+x)++H^+⇄H3L^(3+x)+ (stepwise protonation constant)",[9]; [16],2.25(2)
same,"log K, HL^(1+x)++H^+⇄H2L^(2+x)+ (stepwise protonation constant)",[9]; [16],7.90(1)
same,"log K, L^x+H^+⇄HL^(1+x)+ (stepwise protonation constant)",[9]; [16],10.80(1) ^d
same,"log β (∑log K, protonation)",[9]; [16],20.95
same,"log K, Cu+L⇄[CuL] (stability constant)",[10]; [16],"17.62(2) ^c, ^d"
same,"log K, [CuL]+H2O⇄[CuL(OH)]+H",[10]; [16],–9.07(2) ^c
same,"log K, Cu+L⇄[CuL] (stability constant)","[10]; 0.15 M NaClO4, 298.1 K, ref footnote c, number not printed, listed as COOHPyNH3",17.62
COc1cc2nc(c1)CNCCNCCNC2 [^ MeO PyNH 3],TON of catalase activity of the Mn2+ complexes,[5],25–37
[Cu+2].[O-][Cl+3]([O-])([O-])[O-].[O-][Cl+3]([O-])([O-])[O-] [Cu(ClO4)2],k cat (SOD catalytic constant),[8],2.7 10^6 M^–1 s^–1
same,TON (moles of H2O2 decomposed by one mol of metal ions),[6]; [17],0
same,nO2(g),[6]; [17],0 mol
[Cl][Fe]([Cl])[Cl] [FeCl3],TON (moles of H2O2 decomposed by one mol of metal ions),[6]; [18],0
same,nO2(g),[6]; [18],0 mol
